# Experimental data reported in PMC9179341, “Design of New Potent and Selective Thiophene-Based KV1.3 Inhibitors and Their Potential for Anticancer Activity” (Cancers, 2022).
# System: Colo-357
# Assay: not given
# Parameters: method as in PMID 29034212
# Settings: read-out: EC50 cell death; cited from earlier work
row,SMILES,EC50 [µM]
1,O=C(NCCC[P+](c1ccccc1)(c1ccccc1)c1ccccc1)Oc1ccc(OCCCCOc2c3ccoc3cc3oc(=O)ccc23)cc1 [PCARBTP],2
2,O=c1ccc2c(OCCCCOc3ccc(CCC[P+](c4ccccc4)(c4ccccc4)c4ccccc4)cc3)c3ccoc3cc2o1 [PAPTP],3.7

# Target: T1, KV1.3 (Homo sapiens, UniProt P22001)
# T1 sequence (P22001 whole entry): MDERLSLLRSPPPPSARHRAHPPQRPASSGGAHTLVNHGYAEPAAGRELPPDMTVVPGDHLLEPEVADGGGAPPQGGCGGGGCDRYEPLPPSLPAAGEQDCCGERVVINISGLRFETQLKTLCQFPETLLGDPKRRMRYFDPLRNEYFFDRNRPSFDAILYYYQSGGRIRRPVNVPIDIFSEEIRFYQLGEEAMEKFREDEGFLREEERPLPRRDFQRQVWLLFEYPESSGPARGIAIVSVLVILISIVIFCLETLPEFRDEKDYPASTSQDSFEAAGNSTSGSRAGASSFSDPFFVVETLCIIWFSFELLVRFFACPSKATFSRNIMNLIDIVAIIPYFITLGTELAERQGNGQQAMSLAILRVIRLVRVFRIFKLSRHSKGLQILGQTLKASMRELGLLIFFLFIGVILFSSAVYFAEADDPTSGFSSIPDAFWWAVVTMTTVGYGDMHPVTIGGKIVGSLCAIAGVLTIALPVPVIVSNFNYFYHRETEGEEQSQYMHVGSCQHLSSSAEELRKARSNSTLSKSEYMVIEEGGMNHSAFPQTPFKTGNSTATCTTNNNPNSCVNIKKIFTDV
# Assay: KV1.3 inhibition, HiClamp on Xenopus laevis oocytes
# Assay type: cell-based
# Settings: Xenopus laevis oocytes (marked * in Table 2)
# Method: (§1) Stage V–VI oocytes were isolated by partial ovariectomy from Xenopus laevis frogs (African clawed frogs). […] After anaesthetizing the frogs by a 15-min submersion in 0.1% tricaine methanesulfonate (amino benzoic acid ethyl ester; Merck, Kenilworth, NJ, USA), pH 7.0, the oocytes were collected. The isolated oocytes were then washed with a 1.5 mg/mL collagenase solution for 2 h to remove the follicle layer.
# (§2) Ion channels (Kv1.x, Kv2.1, Kv4.2, Kv10.1) were expressed in Xenopus laevis oocytes by linearization of the plasmids and subsequent in vitro transcription using a commercial T7 or SP6 mMESSAGE mMACHINE transcription kit (Ambion, Carlsbad, California, USA). Defolliculated Xenopus oocytes were then injected with 20–50 nL of the cRNA at a concentration of 1 ng/nL using a micro-injector (Drummond Scientific1, Broomall, PA, USA). The oocytes were incubated in a solution containing (in mM): NaCl, 96; KCl, 2; CaCl2, 1.8; MgCl2, 2 and HEPES, 5 (pH 7.5), supplemented with 50 mg/L gentamycin sulfate and 90 mg/L theophylline.
# (§3) Two-electrode voltage-clamp recordings were performed at room temperature (18–22 °C) using a Geneclamp 500 amplifier (Molecular Devices, San Jose, CA, USA) and pClamp data acquisition (Axon Instruments, Union City, CA, USA) and using an integrated digital TEVC amplifier controlled by HiClamp, an automated Voltage-Clamp Screening System (Multi Channel Systems MCS GmbH, Reutlingen, Germany). Whole-cell currents from oocytes were recorded 1–4 days after injection. The bath solution composition was ND96 (in mM): NaCl, 96; KCl, 2; CaCl2, 1.8; MgCl2, 2 and HEPES, 5 (pH 7.5). Voltage and current electrodes were filled with a 3 M solution of KCl in H2O. […] The elicited Kv1.x, Kv2.1, Kv4.2 and Kv10.1 currents were filtered at 0.5 kHz and sampled at 2 kHz using a four-pole low-pass Bessel filter. Leak subtraction was performed using a P/4 protocol.
# (§4) For the electrophysiological analysis of the compounds, a number of protocols were applied from a holding potential of −90 mV. Currents for Kv1.x, Kv2.1, Kv4.2 and Kv10.1 were evoked by 1 s depolarizing pulses either to 0 mV or to a range of voltage steps between −80 mV and +40 mV. For the analysis of the data, only the inhibition at the 0 mV step was used. The concentration dependency of all compounds was assessed by measuring the current inhibition in the presence of increasing compound concentrations. […] From this stock solution, adequate dilutions with a maximum of 0.5% DMSO were made for testing.
# (§5) All electrophysiological data (Figure S1) are presented as means ± S.E.M of n ≥ three independent experiments unless otherwise indicated. […] The Dunnett test and one-way ANOVA were performed to calculate the significance of the induced inhibition compared to the control.
row,IC50 [µM],SMILES
1,2.92,COc1cc(C)ccc1C(=O)NCC1(c2ccsc2)CCOCC1 [Compound 51]
2,1.65,COc1cc(C)ccc1C(=O)NCC1(c2ccccc2)CCOCC1 [Compound 36]

# System: Panc-1 cell line
# Assay: not given
# Parameters: method as in PMID 29034212
# Settings: Panc-1 cell line; read-out: EC50 decrease of cell survival; cited from earlier work
row,SMILES,EC50 [µM]
1,O=C(NCCC[P+](c1ccccc1)(c1ccccc1)c1ccccc1)Oc1ccc(OCCCCOc2c3ccoc3cc3oc(=O)ccc23)cc1 [PCARBTP],~6
2,O=c1ccc2c(OCCCCOc3ccc(CCC[P+](c4ccccc4)(c4ccccc4)c4ccccc4)cc3)c3ccoc3cc2o1 [PAPTP],~3

# Target: T1, KV1.3
# Assay: KV1.3 inhibition, manual voltage-clamp on Xenopus laevis oocytes
# Assay type: cell-based
# Settings: 10 μM; manual voltage-clamp on Xenopus laevis oocytes
# Method: as §1, §2, §3, §4, §5
row,inhibition at 10 µM [%],SMILES
1,88 ± 4,COc1cccc(C2(CNC(=O)c3ccccc3OC)CCOCC2)c1 [Compound 28]
2,< 10,COc1ccc(C2(CNC(=O)c3ccccc3OC)CCCC2)cc1OC [Compound 8]
3,21 ± 6,O=C(NCC1(c2ccsc2)CCOCC1)c1ccoc1 [Compound 46]
4,87 ± 4,COc1ccccc1C(=O)NCC1(c2cccc(C)c2)CCOCC1 [Compound 29]
5,38 ± 5,COc1ccccc1CC(=O)NCC1(c2ccccc2)CCOCC1 [Compound 33]
6,35 ± 8,CCOc1ccccc1C(=O)NCC1(c2ccsc2)CCOCC1 [Compound 47]
7,60 ± 9,COc1ccccc1C(=O)NCC1(c2ccc3c(c2)OCO3)CCOCC1 [Compound 26]
8,47 ± 1,COc1ccc(C)cc1C(=O)NCC1(c2ccccc2)CCOCC1 [Compound 34]
9,42 ± 6,COc1ccc(C)cc1C(=O)NCC1(c2ccsc2)CCOCC1 [Compound 48]
10,27 ± 2,COc1ccccc1C(=O)NCC1(c2cccc(C)c2)CCCCC1 [Compound 20]
11,< 10,COc1ccc(C2(CNC(=O)c3ccccc3OC)CCOCC2)cc1OC [Compound 23]
12,30 ± 8,COc1ccccc1C(=O)NCC1(c2ccsc2)CCCCC1 [Compound 21]
13,57 ± 9,COc1ccccc1C(=O)NCC1(c2cccs2)CCCC1 [Compound 13]
14,74 ± 9,CCOc1ccccc1C(=O)NCC1(c2ccccc2)CCOCC1 [Compound 35]
15,12 ± 2,COc1cccc(C2(CNC(=O)c3ccccc3OC)CCCCC2)c1 [Compound 19]
16,< 10,COc1ccc(C2(CNC(=O)c3ccccc3OC)CCCCC2)cc1OC [Compound 15]
17,< 10,COc1ccc(C2(CNC(=O)c3ccccc3OC)CCCC2)cc1 [Compound 6]
18,54 ± 10,COc1ccccc1C(=O)NCC1(c2cscn2)CCOCC1 [Compound 42]
19,< 10,COc1ccccc1C(=O)NCC1(c2ccccc2OC)CCCCC1 [Compound 18]
20,16 ± 4,COc1ccccc1C(=O)NCC1(c2cccc(C)c2)CCCC1 [Compound 12]
21,< 10,COc1cccc(OC)c1C(=O)NCC1(c2ccccc2)CCOCC1 [Compound 30]

row,inhibition at 10 µM [%],SMILES
1,41 ± 10,COc1ccccc1C(=O)NCC1(c2csc(C)n2)CCOCC1 [Compound 41]
2,82 ± 1,COc1cc(C)ccc1C(=O)NCC1(c2ccsc2)CCOCC1 [Compound 51]
3,< 10,COc1ccc(C2(CNC(=O)c3ccccc3OC)CCCCC2)cc1 [Compound 16]
4,< 10,COc1ccccc1C(=O)NCC1(c2ccc(C(F)(F)F)cc2)CCOCC1 [Compound 22]
5,< 10,COc1ccccc1C(=O)NCC1(c2ccc3c(c2)OCO3)CCCC1 [Compound 9]
6,< 10,COc1cccc(OC)c1C(=O)NCC1(c2ccsc2)CCOCC1 [Compound 45]
7,43 ± 1,COc1ccccc1CC(=O)NCC1(c2ccsc2)CCOCC1 [Compound 49]
8,< 10,COc1ccccc1C(=O)NCC1(c2csc3ccccc23)CCOCC1 [Compound 38]
9,< 10,COc1ccccc1C(=O)NCC1(c2ccc(C(F)(F)F)cc2)CCCCC1 [Compound 17]
10,27 ± 6,O=C(NCC1(c2ccccc2)CCOCC1)c1ccoc1 [Compound 32]
11,< 10,COc1ccc(-c2csc(C3(CNC(=O)c4ccccc4OC)CCOCC3)n2)cc1 [Compound 39]
12,11 ± 4,O=C(NCC1(c2ccccc2)CCOCC1)c1ccsc1 [Compound 31]
13,< 10,COc1ccccc1C(=O)NCC1(c2ccccc2)CCCC1 [Compound 10]
14,89 ± 4,COc1cc(C)ccc1C(=O)NCC1(c2ccccc2)CCOCC1 [Compound 36]
15,59 ± 5,COc1ccc(C2(CNC(=O)c3ccccc3OC)CCOCC2)cc1 [Compound 24]
16,78 ± 4,COc1ccccc1C(=O)NCC1(c2ccccc2OC)CCOCC1 [Compound 27]
17,18 ± 3,COc1cccc(C2(CNC(=O)c3ccccc3OC)CCCC2)c1 [Compound 11]
18,< 10,COc1ccccc1C(=O)NCC1(c2ccccc2OC)CCCC1 [Compound 7]
19,< 10,COc1ccccc1C(=O)NCC1(c2nc(-c3ccccc3)cs2)CCOCC1 [Compound 40]
20,47 ± 9,COc1ccc(F)cc1C(=O)NCC1(c2ccsc2)CCOCC1 [Compound 50]
21,52 ± 8,COc1ccccc1C(=O)NCC1(c2ccc(C)cc2)CCOCC1 [Compound 25]

# Same assay, conditions: KV1.3; manual voltage-clamp, Xenopus laevis oocytes
row,IC50 [µM],SMILES
1,5.75,COc1cccc(C2(CNC(=O)c3ccccc3OC)CCOCC2)c1 [Compound 28]
2,4.3,COc1ccccc1C(=O)NCC1(c2cccc(C)c2)CCOCC1 [Compound 29]
